The numbers were not newly measured in patent publication US20140256761A1, “ENHANCED ARTEMISININ-BASED COMBINATION THERAPY FOR TREATING PARASITIC MEDIATED DISEASE” (priority 2009, published 2014), which cites them from elsewhere.

The structures appear in SMILES notation.

The conditions of data set [1]: in water or oils.
For data set [2] the following is noted: in vivo.
The conditions of data set [3]: generally considered.

`CO[C@H]1O[C@@H]2O[C@@]3(C)CC[C@H]4[C@H](C)CC[C@@H]([C@H]1C)[C@@]24OO3` [artemether, (+)-(3-alpha,5a-beta,6-beta,8a-beta, 9-alpha,12-beta,12aR)-decahydro-10-methoxy-3,6,9-trimethyl-3,12-epoxy-12H-pyrano(4,3-j)-1,2-benzodioxepin]: the solubility entry in data set [1] is listed as “lipid-soluble”.

Take `COc1cc(NC(C)CCCN)c2ncccc2c1` (centres unmarked) [Primaquine]: the “absorption from the gastro-intestinal tract” value in data set [2] is given as “readily absorbed”.

In the case of `C[C@H]1[C@H](OC(=O)CCC(=O)O)O[C@@H]2O[C@@]3(C)CC[C@H]4[C@H](C)CC[C@@H]1[C@@]24OO3` [artesunate, 3R,5aS,6R,8aS,9R,10S,12R,12aR)-Decahydro-3,6,9-trimethyl-3,12-epoxy-12H-pyrano(4,3-j)-1,2-benzodioxepin-10-ol hydrogen succinate], in data set [1], the solubility entry is “water-soluble”.

For `COc1ccc2cc3[n+](cc2c1OC)CCc1cc2c(cc1-3)OCO2` [Berberine, (5,6-Dihydro-9,10-dimethoxybenzo[g]-1,3-benzodioxolo[5,6-a]quinolizinium)], the toxicity entry in data set [3] was “non-toxic”.

Regarding `C[C@@H]1CC[C@H]2[C@@H](C)C(=O)O[C@@H]3O[C@@]4(C)CC[C@@H]1[C@]32OO4` [artemisinin], the solubility entry in data set [1] is given as “sparingly soluble”.
